Test results reported in patent publication US6090828A, “5-aryleheteroarylalkyl-1,3,5-trisubstituted-1,2,4-triazole compounds for treatment of circulatory disorders” (priority 1997, dated 2000).
Like-named read-outs stand apart in the source and are kept apart here.

Experiments:
[1] = molecular target: smooth muscle angiotensin II receptor; experiment: Assay A: Angiotensin II Binding Activity; settings: 50% displacement of specifically bound 125I-AII; rat uterine membranes; pH 7.5; 25° C., 60 min
Description: Compounds of the invention were tested for ability to bind to the smooth muscle angiotensin II receptor using a rat uterine membrane preparation. […] Rat uterine membranes were prepared from fresh tissue. All procedures were carried out at 4° C. Uteri were stripped of fat and homogenized in phosphate-buffered saline at pH 7.4 containing 5 mM EDTA. The homogenate was centrifuged at 1500×g for 20 min., and the supernatant was recentrifuged at 100,000×g for 60 min. The pellet was resuspended in buffer consisting of 2 mM EDTA and 50 mM Tris-HCl (pH 7.5) to a final protein concentration of 4 mg/ml. […] The reaction was initiated by the addition of membrane protein and the mixture was incubated at 25° C. for 60 min. The incubation was terminated with ice-cold 50 mM Tris-HCl (pH 7.5) and the mixture was filtered to separate membrane-bound labelled peptide from the free ligand. The incubation tube and filter were washed with ice-cold buffer. Filters were assayed for radioactivity in a Micromedic gamma counter. Nonspecific binding was defined as binding in the presence of 10 μM of unlabelled AII. Specific binding was calculated as total binding minus nonspecific binding. […] Binding data were analyzed by a nonlinear least-squares curve fitting program.

rabbit aortic rings = molecular target: T1, rabbit aortic rings (Oryctolagus cuniculus, UniProt P34976); experiment: Assay B: In Vitro Vascular Smooth Muscle Response for AII; design: species or system rabbit (male New Zealand white); settings: rabbit aorta rings, two rabbits per antagonist, antagonist 10^-5 M, 5 minutes, AII contraction, Schild
T1 construct: The thoracic aorta was removed, cleaned of adherent fat and connective tissue and then cut into 3-mm ring segments; from tissue; host or cells: rabbit thoracic aorta rings, endothelium removed
T1 sequence (P34976 1-359): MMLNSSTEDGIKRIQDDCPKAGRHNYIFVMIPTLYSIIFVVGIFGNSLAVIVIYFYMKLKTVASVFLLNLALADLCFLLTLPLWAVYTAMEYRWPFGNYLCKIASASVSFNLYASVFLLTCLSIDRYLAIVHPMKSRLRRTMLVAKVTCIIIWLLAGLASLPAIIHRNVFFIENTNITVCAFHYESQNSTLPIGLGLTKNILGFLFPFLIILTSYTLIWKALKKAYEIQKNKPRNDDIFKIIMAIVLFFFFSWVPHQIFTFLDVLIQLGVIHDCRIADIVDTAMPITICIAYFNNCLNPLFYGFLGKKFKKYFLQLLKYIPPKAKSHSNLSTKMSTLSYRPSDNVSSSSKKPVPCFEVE
Description: The compounds of the invention were tested for antagonist activity in rabbit aortic rings. Male New Zealand white rabbits (2-2.5 kg) were sacrificed using an overdose of pentobarbital and exsanguinated via the carotid arteries. The thoracic aorta was removed, cleaned of adherent fat and connective tissue and then cut into 3-mm ring segments. The endothelium was removed from the rings by gently sliding a rolled-up piece of filter paper into the vessel lumen. The rings were then mounted in a water-jacketed tissue bath, maintained at 37° C., between moveable and fixed ends of a stainless steel wire with the moveable end attached to an FT03 Grass transducer coupled to a Model 7D Grass Polygraph for recording isometric force responses. […] The preparations were equilibrated for one hour before approximately one gram of passive tension was placed on the rings. Angiotensin II concentration-response curves were then recorded (3×10^-10 to 1×10^-5 M). Each concentration of AII was allowed to elicit its maximal contraction, and then AII was washed out repeatedly for 30 minutes before rechallenging with a higher concentration of AII. Aorta rings were exposed to the test antagonist at 10^-5 M for 5 minutes before challenging with AII. Adjacent segments of the same aorta ring were used for all concentration-response curves in the presence or absence of the test antagonist. […] The pA2 value is the concentration of the antagonist which increases the EC50 value for AII by a factor of two. Each test antagonist was evaluated in aorta rings from two rabbits.

[2] = read-out: pA2 (first of two values) (converted)
[3] = read-out: pA2 (second of two values) (converted)

IC50 [1] [nM] | Kb (rabbit aortic rings; [2]) [nM] | Kb (rabbit aortic rings; [3]) [nM] | Compound
390 | – | – | CCCCn1nc(C(C)=O)nc1Cc1ccc(-c2ccccc2-c2nnn[nH]2)nc1 [Example 34, 5-[2-[5-[[1-butyl-3-(1-oxoethyl)-1H-1,2,4-triazol-5-yl]methyl]-2-pyridinyl]phenyl]-1H-tetrazole]
420 | 38 | 178 | CCCCn1nc(C(F)F)nc1Cc1ccc(-c2ccccc2-c2nnn[nH]2)nc1 [Example 14, 5-[2-[5-[(1-butyl-3-difluoromethyl-1H-1,2,4-triazol-5-yl)methyl]-2-pyridinyl]phenyl]-1H-tetrazole]
28 | – | – | CCCCn1nc(C(F)CCC)nc1Cc1ccc(-c2ccccc2-c2nnn[nH]2)nc1 (stereo not shown) [Example 12, 5-[2-[5-[[1-butyl-3-(1-fluorobutyl)-1H-1,2,4-triazol-5-yl]methyl]-2-pyridinyl]phenyl]-1H-tetrazole]
78 | 9.33 | 21.9 | CCCCCc1nc(Cc2ccc(-c3ccccc3-c3nnn[nH]3)nc2)n(CCCC)n1 [Example 7, 5-[2-[5-[(1-butyl-3-pentyl-1H-1,2,4-triazol-5-yl)methyl]-2-pyridinyl]phenyl]-1H-tetrazole]
420 | 20.4 | 26.3 | CCCCn1nc(C(F)(F)CC)nc1Cc1ccc(-c2ccccc2-c2nnn[nH]2)nc1 [Example 19, 5-[2-[5-[[1-butyl-3-(1,1-difluoropropyl)-1H-1,2,4-triazol-5-yl]methyl]-2-pyridinyl]phenyl]-1H-tetrazole]
59 | – | – | CCCCn1nc(C(C)(OC)OC)nc1Cc1ccc(-c2ccccc2-c2nnn[nH]2)nc1 [Example 33, 5-[2-[5-[[1-butyl-3-(1,1-dimethoxyethyl)-1H-1,2,4-triazol-5-yl]methyl]-2-pyridinyl]phenyl]-1H-tetrazole]
86 | 25.1 | 72.4 | CCCCCn1nc(CCCC)nc1Cc1ccc(-c2ccccc2-c2nnn[nH]2)nc1 [Example 6, 5-[2-[5-[(1-pentyl-3-butyl-1H-1,2,4-triazol-5-yl)methyl]-2-pyridinyl]phenyl]-1H-tetrazole]
410 | 126 | 66.1 | CCCn1nc(C(C)(F)F)nc1Cc1ccc(-c2ccccc2-c2nnn[nH]2)nc1 [Example 16, 5-[2-[5-[[1-propyl-3-(1,1-difluoroethyl)-1H-1,2,4-triazol-5-yl]methyl]-2-pyridinyl]phenyl]-1H-tetrazole]
370 | 83.2 | 77.6 | CCCn1nc(C(F)(F)CC)nc1Cc1ccc(-c2ccccc2-c2nnn[nH]2)nc1 [Example 18, 5-[2-[5-[[1-propyl-3-(1,1-difluoropropyl)-1H-1,2,4-triazol-5-yl]methyl]-2-pyridinyl]phenyl]-1H-tetrazole]
160 | 26.9 | 18.2 | CCCCn1nc(C(C)(F)F)nc1Cc1ccc(-c2ccccc2-c2nnn[nH]2)nc1 [Example 17, 5-[2-[5-[[1-butyl-3-(1,1-difluoroethyl)-1H-1,2,4-triazol-5-yl]methyl]-2-pyridinyl]phenyl]-1H-tetrazole]
26 | 38.9 | 14.1 | CCCCn1nc(C(OCCC)OCCC)nc1Cc1ccc(-c2ccccc2-c2nnn[nH]2)nc1 [Example 28, 5-[2-[5-[[1-butyl-3-dipropoxymethyl-1H-1,2,4-triazol-5-yl]methyl]-2-pyridinyl]phenyl]-1H-tetrazole]
530 | – | 603 | CCCCc1nc(Cc2ccc(-c3ccccc3-c3nnn[nH]3)nc2)n(CC(CC)CC)n1 [Example 8, 5-[2-[5-[[1-(2-ethylbutyl)-3-butyl-1H-1,2,4-triazol-5-yl]methyl]-2-pyridinyl]phenyl]-1H-tetrazole]
180 | 51.3 | 95.5 | CCCn1nc(C(OC)OC)nc1Cc1ccc(-c2ccccc2-c2nnn[nH]2)nc1 [Example 25, 5-[2-[5-[[1-propyl-3-dimethoxymethyl-1H-1,2,4-triazol-5-yl]methyl]-2-pyridinyl]phenyl]-1H-tetrazole]
70 | 70.8 | 91.2 | CCCCn1nc(C(=O)NC)nc1Cc1ccc(-c2ccccc2-c2nnn[nH]2)nc1 [Example 23, 5-[2-[5-[[1-butyl-3-(N-methylamido)-1H-1,2,4-triazol-5-yl]methyl]-2-pyridinyl]phenyl]-1H-tetrazole]
310 | 214 | – | CCCCn1nc(C=O)nc1Cc1ccc(-c2ccccc2-c2nnn[nH]2)nc1 [Example 30, 5-[2-[5-[[1-butyl-3-formyl-1H-1,2,4-triazol-5-yl]methyl]-2-pyridinyl]phenyl]-1H-tetrazole]
88 | 28.8 | 33.9 | CCCCn1nc(C(OC(C)C)OC(C)C)nc1Cc1ccc(-c2ccccc2-c2nnn[nH]2)nc1 [Example 29, 5-[2-[5-[[1-butyl-3-diisopropoxymethyl-1H-1,2,4-triazol-5-yl]methyl]-2-pyridinyl]phenyl]-1H-tetrazole]
97 | 6.46 | 4.17 | CCCCn1nc(/C=C/c2cccs2)nc1Cc1ccc(-c2ccccc2-c2nnn[nH]2)nc1 [Example 5, 5-[2-[5-[[1-butyl-3-[2-(2-thienyl)ethenyl]-1H-1,2,4-triazol-5-yl]methyl]-2-pyridinyl]phenyl]-1H-tetrazole]
380 | 617 | 282 | CCCn1nc(C(F)F)nc1Cc1ccc(-c2ccccc2-c2nnn[nH]2)nc1 [Example 13, 5-[2-[5-[(1-propyl-3-difluoromethyl-1H-1,2,4-triazol-5-yl)methyl]-2-pyridinyl]phenyl]-1H-tetrazole]
1100 | 166 | – | CCCCc1nc(Cc2ccc(-c3ccccc3-c3nnn[nH]3)nc2)n(CC(C)(C)C)n1 [Example 35, 5-[2-[5-[(1-neopentyl-3-butyl-1H-1,2,4-triazol-5-yl)methyl]-2-pyridinyl]phenyl]-1H-tetrazole]
64 | 13.5 | 19.5 | CCCCn1nc(C(=O)CCC)nc1Cc1ccc(-c2ccccc2-c2nnn[nH]2)nc1 [Example 11, 5-[2-[5-[[1-butyl-3-(1-oxobutyl)-1H-1,2,4-triazol-5-yl]methyl]-2-pyridinyl]phenyl]-1H-tetrazole]
17 | 17.4 | 10.7 | CCCCn1nc(CCc2ccccc2)nc1Cc1ccc(-c2ccccc2-c2nnn[nH]2)nc1 [Example 2, 5-[2-[5-[[1-butyl-3-(2-phenylethyl)-1H-1,2,4-triazol-5-yl]methyl]-2-pyridinyl]phenyl]-1H-tetrazole]
90 | 32.4 | 120 | CCCCn1nc(C(=O)NC(C)(C)C)nc1Cc1ccc(-c2ccccc2-c2nnn[nH]2)nc1 [Example 24, 5-[2-[5-[[1-butyl-3-(N-tertbutylamido)-1H-1,2,4-triazol-5-yl]methyl]-2-pyridinyl]phenyl]-1H-tetrazole]

Compound | IC50 [1] [nM] | Kb (rabbit aortic rings; [2]) [nM] | Kb (rabbit aortic rings; [3]) [nM]
5-[2-[5-[[1-ethyl-3-(1,1-difluoroethyl)-1H-1,2,4-triazol-5-yl]methyl]-2-pyridinyl]phenyl]-1H-tetrazole [Example 15] | 1700 | – | –
